# Assay results from PMC5808925 (Nature, 2017).
# Tested on: recombinant HLA-DR*0401
# Assay type: binding, human
sequence,measurement,value
IKNKIDGETTDYAAPV,affinity for HLA-DR*0401,high affinity
